Values joined by “and” are separate entries in the source; they are usually repeats but may differ in a detail not shown here. Identical values can stand only once.
Experiments:
[1] = In vitro serum stability of radiolabeled C-NE3TA complexes in human serum (SE-HPLC); assay type: in vitro ADME; conditions: 37° C., up to 11 days
Experimental: C-NE3TA was radiolabeled with ^90Y, ^177Lu, ^203Pb, ^205/6Bi, or ^153Gd as previously described (Chong, H. S.; Milenic, D. E.; Garmestani, K.; Brady, E. D.; Arora, H.; Pfiester, C.; Brechbiel, M. W., Nucl. Med. Biol. 2006, 33, 459-67; Chong H S, Garmestani K, Bryant Jr., L H Milenic D E, Overstreet T, Birch N, Le N, Brady E D, Brechbiel M W. J. Med. Chem. 2006, 49, 2055-2062). In vitro serum stability of the radiolabeled complexes purified via ion-exchange chromatography was performed to determine if C-NE3TA labeled with the radioisotopes remained stable without transchelation or loss of their respective radionuclide in human serum. This was assessed by measuring the transfer of radionuclide from the complex to serum proteins over the course of 11 days.
In vitro stability of the radiolabeled metal complexes. The stability of the purified radiolabeled complexes was evaluated in human serum (Gemini Bioproducts, Woodland, Calif.) for up to 11 days. The serum stability of the radiolabeled complexes was assessed by measuring the transfer of the radionuclide from each complex to serum proteins using SE-HPLC methods. Radiolabeled complexes were diluted to an appropriate volume that allowed for preparation of multiple samples containing 5-10 μCi and were filter-sterilized using a Millex-GV 0.22 μm filter. This stock solution was then mixed with 1400 μL of sterile normal human serum. Aliquots (200 μL) were drawn and separated into individual tubes for subsequent analysis using aseptic technique. The samples were incubated at 37° C., and at designated intervals, subjected to analysis by SE-HPLC. Samples were loaded onto the HPLC and eluted with PBS, pH 7.4 isocratically at 1 mL/min. […] Radioactivity associated with a transfer to serum proteins generally appeared at ˜6 min.

[2] = In vivo biodistribution of radiolabeled complexes in normal athymic mice; conditions: for percent injected dose per gram, Blood / percent injected dose per gram, Femur / percent injected dose per gram, Heart / percent injected dose per gram, Kidney / percent injected dose per gram, Liver / percent injected dose per gram, Lung / percent injected dose per gram, Spleen: non-tumor bearing mice, ± SD
Experimental: The in vivo stability of the radiolabeled complexes was evaluated by performing biodistribution studies in normal athymic mice. Selected organs and the blood were harvested at five time points, 0.5, 1, 4, 8, and 24 h post-injection and the radioactivity measured. […] C-NE3TA radiolabeled with ^153Gd was almost completely cleared from blood, liver, spleen, lung, heart, and femur in less than 4 hours, and radioactivity level in the kidney was 0.16%±0.11 ID/g at 24 hour post-injection (Table 9).
In vivo biodistribution studies oh the radiolabeled metal complexes. Female athymic mice were obtained from Charles River Laboratories (Wilmington, Mass.) at 4-6 weeks of age. The pH of the radiolabeled ligands was adjusted to pH ˜7.0 with 0.5 M sodium bicarbonate (pH 10.5) and diluted in phosphate-buffered saline. The radiolabeled ligands ([…] for ^86Y, ^205/6Bi, ^177Lu, and ^203Pb) were administered to the mice in 200 μL of solution via tail vein injection. The mice (5 per data point) were sacrificed by exsanguination at 0.5, 1, 4, 8, and 24 h. Blood and the major organs were harvested, wet-weighed and the radioactivity measured in a γ-scintillation counter (1480 Wizard, Perkin Elmer). The percent injected dose per gram (% ID/g) was determined for each tissue. The values presented are the mean and standard deviation for each tissue.

SMILES: O=C([O-])CNC(Cc1ccc([N+](=O)[O-])cc1)CN1CCN(CC(=O)[O-])CCN(CC(=O)[O-])CC1.[Bi+3] (stereo not drawn) [^205/6Bi-C-NE3TA]
- stability in human serum (in words) [1]: no measurable loss of radioactivity
- percent injected dose per gram, Blood ([2]; 0.50 hr): 0.46 ± 0.18 % ID/g
- percent injected dose per gram, Femur ([2]; 0.50 hr): 0.62 ± 0.27 % ID/g
- percent injected dose per gram, Heart ([2]; 0.50 hr): 0.36 ± 0.09 % ID/g
- percent injected dose per gram, Kidney ([2]; 0.50 hr): 5.05±0.24 % ID/g
- percent injected dose per gram, Liver ([2]; 0.50 hr): 1.01 ± 0.15 % ID/g
- percent injected dose per gram, Lung ([2]; 0.50 hr): 0.56 ± 0.13 % ID/g
- percent injected dose per gram, Spleen ([2]; 0.50 hr): 0.45 ± 0.24 % ID/g
- percent injected dose per gram, Kidney ([2]; 0.50 hr, listed as 205/6BiC-NE3TA): 5.05 ± 0.24 % ID/g
- percent injected dose per gram, Blood ([2]; 1.00 hr): 0.13 ± 0.02 % ID/g
- percent injected dose per gram, Femur ([2]; 1.00 hr): 0.26 ± 0.05 % ID/g
- percent injected dose per gram, Heart ([2]; 1.00 hr): 0.19 ± 0.02 % ID/g
- percent injected dose per gram, Kidney ([2]; 1.00 hr): 4.69 ± 0.55 % ID/g
- percent injected dose per gram, Liver ([2]; 1.00 hr): 0.80 ± 0.16 % ID/g
- percent injected dose per gram, Lung ([2]; 1.00 hr): 0.25 ± 0.03 % ID/g
- percent injected dose per gram, Spleen ([2]; 1.00 hr): 0.25 ± 0.02 % ID/g
- percent injected dose per gram, Blood ([2]; 4.00 hr): 0.03 ± 0.00 % ID/g
- percent injected dose per gram, Femur ([2]; 4.00 hr): 0.23 ± 0.06 % ID/g
- percent injected dose per gram, Heart ([2]; 4.00 hr): 0.12 ± 0.01 % ID/g
- percent injected dose per gram, Kidney ([2]; 4.00 hr): 3.42 ± 0.55 % ID/g
- percent injected dose per gram, Liver ([2]; 4.00 hr): 0.52 ± 0.13 % ID/g
- percent injected dose per gram, Lung ([2]; 4.00 hr): 0.16 ± 0.01 % ID/g
- percent injected dose per gram, Spleen ([2]; 4.00 hr): 0.18 ± 0.01 % ID/g
- percent injected dose per gram, Blood ([2]; 8.00 hr): 0.02 ± 0.01 % ID/g
- percent injected dose per gram, Femur ([2]; 8.00 hr): 0.14 ± 0.02 % ID/g
- percent injected dose per gram, Heart ([2]; 8.00 hr): 0.09 ± 0.01 % ID/g
- percent injected dose per gram, Kidney ([2]; 8.00 hr): 1.99 ± 0.32 % ID/g
- percent injected dose per gram, Liver ([2]; 8.00 hr): 0.37 ± 0.08 % ID/g
- percent injected dose per gram, Lung ([2]; 8.00 hr): 0.13 ± 0.04 % ID/g
- percent injected dose per gram, Spleen ([2]; 8.00 hr): 0.12 ± 0.02 % ID/g
- percent injected dose per gram, Blood ([2]; 24.00 hr): 0.01 ± 0.00 % ID/g
- percent injected dose per gram, Femur ([2]; 24.00 hr): 0.13 ± 0.01 % ID/g
- percent injected dose per gram, Heart ([2]; 24.00 hr): 0.08 ± 0.02 % ID/g
- percent injected dose per gram, Kidney ([2]; 24.00 hr): 0.73±0.19 % ID/g
- percent injected dose per gram, Liver ([2]; 24.00 hr): 0.14 ± 0.03 % ID/g
- percent injected dose per gram, Lung ([2]; 24.00 hr): 0.09 ± 0.01 % ID/g
- percent injected dose per gram, Spleen ([2]; 24.00 hr): 0.13 ± 0.01 % ID/g
- percent injected dose per gram, Kidney ([2]; 24.00 hr, listed as 205/6BiC-NE3TA): 0.73 ± 0.19 % ID/g
- blood and organ clearance (in words) ([2]; normal athymic mice): rapidly cleared from the blood, lung, heart, and femur

SMILES: O=C(O)CNC(Cc1ccc([N+](=O)[O-])cc1)CN1CCN(CC(=O)O)CCN(CC(=O)O)CC1.[153Gd] (stereo not drawn) [^153Gd-C-NE3TA]
- stability in human serum (in words) [1]: no measurable loss of radioactivity
- percent injected dose per gram, Blood ([2]; 0.50 hr): 1.41 ± 0.57 % ID/g
- percent injected dose per gram, Femur ([2]; 0.50 hr): 0.43 ± 0.14 % ID/g
- percent injected dose per gram, Heart ([2]; 0.50 hr): 0.43 ± 0.16 % ID/g
- percent injected dose per gram, Kidney ([2]; 0.50 hr): 4.28 ± 1.33 % ID/g
- percent injected dose per gram, Liver ([2]; 0.50 hr): 1.74 ± 0.69 % ID/g
- percent injected dose per gram, Lung ([2]; 0.50 hr): 0.91 ± 0.28 % ID/g
- percent injected dose per gram, Spleen ([2]; 0.50 hr): 0.50 ± 0.37 % ID/g
- percent injected dose per gram, Blood ([2]; 1.00 hr): 0.20 ± 0.08 % ID/g
- percent injected dose per gram, Femur ([2]; 1.00 hr): 1.30 ± 0.58 % ID/g
- percent injected dose per gram, Heart ([2]; 1.00 hr): 0.14 ± 0.06 % ID/g
- percent injected dose per gram, Kidney ([2]; 1.00 hr): 1.13 ± 0.12 % ID/g
- percent injected dose per gram, Liver ([2]; 1.00 hr): 0.58 ± 0.22 % ID/g
- percent injected dose per gram, Lung ([2]; 1.00 hr): 0.32 ± 0.09 % ID/g
- percent injected dose per gram, Spleen ([2]; 1.00 hr): 0.24 ± 0.05 % ID/g
- percent injected dose per gram, Blood ([2]; 4.00 hr): 0.00 ± 0.00 % ID/g
- percent injected dose per gram, Femur ([2]; 4.00 hr): 0.02 ± 0.01 % ID/g
- percent injected dose per gram, Heart ([2]; 4.00 hr): 0.01 ± 0.00 % ID/g
- percent injected dose per gram, Kidney ([2]; 4.00 hr): 0.52 ± 0.04 % ID/g
- percent injected dose per gram, Liver ([2]; 4.00 hr): 0.03 ± 0.01 % ID/g
- percent injected dose per gram, Lung ([2]; 4.00 hr): 0.03 ± 0.00 % ID/g
- percent injected dose per gram, Spleen ([2]; 4.00 hr): 0.02 ± 0.00 % ID/g
- percent injected dose per gram, Blood ([2]; 8.00 hr): 0.00 ± 0.00 % ID/g
- percent injected dose per gram, Femur ([2]; 8.00 hr): 0.02 ± 0.00 % ID/g
- percent injected dose per gram, Heart ([2]; 8.00 hr): 0.01 ± 0.00 % ID/g
- percent injected dose per gram, Kidney ([2]; 8.00 hr): 0.38 ± 0.06 % ID/g
- percent injected dose per gram, Liver ([2]; 8.00 hr): 0.02 ± 0.00 % ID/g
- percent injected dose per gram, Lung ([2]; 8.00 hr): 0.02 ± 0.00 % ID/g
- percent injected dose per gram, Spleen ([2]; 8.00 hr): 0.02 ± 0.00 % ID/g
- percent injected dose per gram, Blood ([2]; 24.00 hr): 0.00 ± 0.00 % ID/g
- percent injected dose per gram, Femur ([2]; 24.00 hr): 0.01 ± 0.00 % ID/g
- percent injected dose per gram, Heart ([2]; 24.00 hr): 0.13 ± 0.27 % ID/g
- percent injected dose per gram, Kidney ([2]; 24.00 hr): 0.16 % ID/g and 0.16 ± 0.11 % ID/g
- percent injected dose per gram, Liver ([2]; 24.00 hr): 0.02 ± 0.01 % ID/g
- percent injected dose per gram, Lung ([2]; 24.00 hr): 0.01 ± 0.01 % ID/g
- percent injected dose per gram, Spleen ([2]; 24.00 hr): 0.01 ± 0.01 % ID/g

Reference: patent US10189803B2, “Synthesis of therapeutic and diagnostic drugs centered on regioselective and stereoselective ring opening of aziridinium ions” (ILLINOIS INSTITUTE OF TECHNOLOGY, priority 2008, dated 2019)
